# Source: US10137099B2, “Activation of AMP-protein activated kinase by oxaloacetate compounds” (priority 2010, dated 2018)
# Read-outs that look alike come from different tables or passages of the source.
# Tests used:
# [1] = test system: ob/ob and db/db mice; conditions: 8 day administration; cited from earlier work
# [2] = Stability and shelf life of oxaloacetic acid forms; conditions: for stability / shelf life at room temperature: kept dry, reduced water content
# Excerpt: (§1) The keto-oxaloacetate decarboxylates quickly to pyruvate. As the keto-oxaloacetate form disappears due to decarboxylation, the enol and hydrated form convert to keto-oxaloacetate, and then also decarboxylate into carbon dioxide and pyruvate, until all the oxaloacetate is consumed. Note that neither of the byproducts of oxaloacetate decarboxylation, carbon dioxide and pyruvate, are effective in activating AMPK.
# (§2) The keto-oxaloacetate decarboxylates quickly, followed by enol conversion to keto form and further decarboxylation. […] Na-OAA has no shelf life, and is not available commercially.
# There is an energy gap between the enol and keto form which is bridged when the compounds are exposed to water, however, this same energy gap prevents the conversion of the enol to keto form when the product is kept dry. Once there is a conversion to the keto form, decarboxylation can spontaneously occur at temperatures above the freezing point of water. […] Drying effectiveness can be increased by increasing the drying time, drying under vacuum, by using anhydrous washes of isopropyl alcohol or ethyl alcohol to absorb the remaining water (and then evaporating the alcohol), or by performing multiple washes with hexane or non-water soluble solvent to physically remove the water, typically after an alcohol wash. The non-water soluble solvent would then be evaporated off. […] Hexane is a residual solvent in many commercial food preparations including decaffeinated coffee, and is not toxic in small quantities. Alternatively, the final wash can be performed with liquefied propane, liquefied butane, ethyl acetate, ethane, carbon dioxide, or nitrous oxide to reduce the water content.
# Biochem., vol. 26, pp. 418-421, 1950, also in Heidelberger; “The Synthesis of Oxalacetic Acid-1-C14 and Orotic Acid-6-C14”, Biochem. Prepn. 3, 59 (1953) pp 4704-4706.
# [3] = Example 1: non-diabetic subject, blood panel after 6 months; type: in vivo, human
# Protocol: A non-diabetic subject is given 100 mg anhydrous enol-oxaloacetic acid in solid form for a period of 6 months to reduce blood triglycerides and glucose levels. AMPK is activated and the treatment is effective.
# [4] = Example 2: fasting blood glucose tracked for several weeks; type: in vivo, human; conditions: 100 mg daily
# Excerpt: The amplitude of the patient's swings in fasting glucose decrease by 55% due to improved glucose homeostasis. AMPK is activated and overall fasting glucose levels drop by 8%. The data is shown in Graph 3.
# [5] = Example 3: body weight of obese patient over three months; type: in vivo, human
# Excerpt: AMPK is activated and the patient drops in weight from 258 to 234 pounds in a three month period. The patient is no longer obese.
# [6] = Example 4: maintenance of weight loss after diet; type: in vivo, human; conditions: 100 mg daily
# Excerpt: A patient successfully loses 24 pounds.
# [7] = Example 5: blood pressure in patient with hypertension; type: in vivo, human; conditions: 100 mg daily for three months
# Excerpt: A patient is diagnosed with hypertension. […] The patient's blood pressure decreases by 10%.
# [8] = 21 diabetic patients, cited from earlier work
# [9] = test system: mouse
# Excerpt: (§3) I have investigated the toxicity of OAA in an acute study and two chronic studies.
# (§4) The dose ratio between toxic and therapeutic effects is the therapeutic index and it can be expressed as the ratio LD50/ED50.
# [10] = Hydrated/keto/enol composition in water; type: physicochemical; conditions: pH 6.9 (oxaloacetic acid), Na-OAA dissolved in water
# Excerpt: The oxaloacetate can be in three forms depending on the pH of the solution. At low pH (<1.5) and low temperature (<4 degrees C.) oxaloacetate hydrates. […] The hydrated form is mostly converted once it enters the higher pH of the body outside of the intestinal tract to the keto and enol form. […] Enol-oxaloacetate is convert to keto-oxaloacetate with the enzyme enol-keto tautomerase, a ubiquitous enzyme throughout the human body.
# as §1, §2
# [11] = test system: rats; conditions: cited from earlier work
# [12] = test system: older mice; assay: Chronic eighteen-month study in older mice; type: in vivo; conditions: 380 mg OAA/kg of mouse, eighteen months
# [13] = Removal of orally consumed oxaloacetic acid from blood stream into cells; type: in vivo, human
# Protocol: The oxaloacetic acid is converted to the ionic form oxaloactate in the digestive tract, and is then absorbed into the body and is distributed throughout the body via the bloodstream. […] At time 0, the amount detected was 0 ug/100 ml blood, at time 30 minutes 0 ug/100 ml blood, and at time 60 minutes ranged from […] blood. […] Within the cells the oxaloacetate reacts into L-malate as it encounters the enzyme malate dehydrogenase (MDH). MDH is ubiquitous in human cells, and the conversion of oxaloacetate to malate is very energetically favorable (the Gibbs Free Energy, delta G, is highly negative (−29.7) indicating the reaction is very favorable to proceed). As oxaloacetate is converted to malate, NADH is converted to NAD+. The resulting increase in the NAD+/NADH ratio leads to the phosphorylation (activation) of AMPK (Rafaeloff-Phail R, Ding L, Conner L, et al. “Biochemical regulation of mammalian AMP-activated protein Kinase activity by NAD and NADH”. J Biol Chem 2004; 279: 52934-9). AMPK serves to stimulate glucose uptake into the skeltal tissues and thereby reduces glucose levels. The immediate reduction is best seen with a glucose tolerance test in individuals that have defective leptin signaling (including overweight and obese persons) that are fasting. […]
# [14] = test system: C. elegans; assay: C. elegans lifespan with functional and non-functional AMPK; type: in vivo, Caenorhabditis elegans; conditions: for lifespan of worms with non-functional alpha AMPK subunit: dysfunctional aak-2 subunit; for lifespan of worms with non-functional alpha AMPK subunit / increase of lifespan: 8 mM oxaloacetate; for increase of lifespan: worms with functional FOXO/DAF-16 and AMPK, p<0.001
# Protocol: I have assayed the CR mimetic OAA for AMPK activation by using the worm C. elegans containing a non-functional alpha AMPK subunit, and have compared lifespan with and without the functional AMPK subunit. […] Graph 1 is the Kaplan-Meyer survival curves for worms with functional and non-functional AMPK showing the difference in lifespan.
# AMPK activation is necessary to increase lifespan of C. elegans when exposed to 8 mM concentrations of oxaloacetate. The increase in lifespan averages approximately 25%, p<0.001.
# [15] = Glucose related effects of supplementation in humans; type: in vivo, human; conditions: non-diabetic patients
# Excerpt: Glucose related effects in humans have measured an 8 to 10% drop in fasting glucose levels in non-diabetic patients, a drop in triglyceride levels by 10% and a 55% reduction in the amplitude of fasting blood glucose levels.
# [16] = test system: human A549 lung cancer tissue; conditions: uM levels, contact solution of 76 uM; not within normal tissue; cancer tissue unable to reproduce for six weeks; cited from earlier work
# [17] = Blood-brain barrier penetration
# Excerpt: AMPK activation has been associated with reduced Alzheimer risk and potentially with Alzheimer's treatment (Richter, Erik and Ruderman, Neil, “AMPK and the biochemistry of exercise: implications for human health and disease” Biochem. J. (2009) 418, 261-275). Thus OAA may be used for reducing the risk of Alzheimer's disease and for treatment of the same.
# [18] = in vivo; conditions: rat
# Excerpt: as §3, §4
# [19] = Decrease (Improvement), February to August 2007
compound,measurement,setting,value
"NC(=O)c1ncn([C@@H]2O[C@H](CO)[C@@H](O)[C@H]2O)c1N [AICAR, 5-Aminoimidazole-4-darboxamide ribonucleoside]",reduction of blood glucose,[1],35%
O=C(O)CC(=O)C(=O)O [anhydrous enol-oxaloacetic acid],stability / shelf life at room temperature,[2],exceeding one year
same,stability / shelf life at room temperature,[2]; listed as reduced water content oxaloacetate form,exceed one year
same,product decay,"[2]; room temperatures, shelf life exceeding one year",less than 1%
same,"Glucose Fasting, August 2007","[3]; 100 mg daily for 6 months, February 2007 baseline 97",89 mg/dL
same,Glucose Fasting % Change,[3]; [19],8.25%
same,Triglyceride % Change,[3]; [19],8.93%
same,"Creatinine, August 2007","[3]; after 6 months, baseline 1",0.9 mg/dL
same,"TSH, August 2007","[3]; after 6 months, baseline 1.41",1.32 uIU/ml
same,"Albumin, August 2007","[3]; after 6 months, baseline 4.4",4.2 g/dL
same,"K (Potassium), August 2007","[3]; after 6 months, baseline 4.6",4.5 mEq/L
same,"Bun-Ser, August 2007","[3]; after 6 months, baseline 14",12 mg/dL
same,"AST (SGOT), August 2007","[3]; after 6 months, baseline 16",15 IU/L
same,"Lipase, August 2007","[3]; after 6 months, baseline 17",19 u/l
same,"CO2 (Carbon Dioxide), August 2007","[3]; after 6 months, baseline 27",29 mEq/L
same,"ALK P'TASE, August 2007","[3]; after 6 months, baseline 36",37 IU/L
same,"HDL Ser Cholesterol, August 2007","[3]; after 6 months, baseline 42",42 mg/dL
same,"Cl (Chloride), August 2007","[3]; after 6 months, baseline 110",108 mEq/L
same,"Triglyceride, August 2007","[3]; after 6 months, baseline 112",102 mg/dL
same,"LDL Cholesterol, August 2007","[3]; after 6 months, baseline 138",138 mg/dL
same,"Na (Sodium), August 2007","[3]; after 6 months, baseline 144",143 mEq/L
same,"Total Cholesterol, August 2007","[3]; after 6 months, baseline 202",203 mg/dL
same,decrease of amplitude of swings in fasting glucose,[4],55%
same,drop of overall fasting glucose levels,[4],8%
same,Ending Weight May 2007,"[5]; 100 mg daily, three month period, starting weight 258",234 pounds
same,Percent Reduction of weight,[5]; February 2007 to May 2007,9.3%
same,"liver genes Acaa1, Cnbp, Fasn, Idil, Ndufabl, Pcx, Sc5d (human homologues)",[6],down regulates
same,regain of weight lost,"[6]; one-year period after the diet, 24 pounds lost",does not regain the weight lost
same,decrease of blood pressure,[7],10%
O=C(O)CC(O)(O)C(=O)O [hydrated form of oxaloacetic acid],shelf life,[2],no shelf life
same,time of stability,[2],less than one-week's time
O=C(O)CC(=O)C(=O)O [oxaloacetic acid],time to decarboxylation,[2]; divalent cations in the fluid,within a day
same,side effects,"[8]; 100 mg to 1,000 mg (2-10 mg/kg)",no negative side effects
same,blood glucose levels,"[8]; 100 mg to 1,000 mg",dropped significantly in all patents
same,patients in whom urine glucose levels dropped,"[8]; 100 mg to 1,000 mg",19 out of the 21
same,LD50,"[9]; acute study, taken with food","more than 5,000 mg OAA/Kg of mouse"
same,LD50,"[9]; mouse, in vivo",above 5 g/kg of body weight
same,fraction in the enol form,[10],11%
same,fraction in the hydrated form,[10],5%
same,fraction in the keto form,[10],84%
same,pancreas findings at 41 mg/kg of body weight,[11]; 41 mg/kg,proliferation and hyperplasia of the islet cells
same,pancreas findings at 83 mg/kg of body weight,[11]; 83 mg/kg,caused changes in pancreatic islets
same,lived longer than the control group,[12],25%
same,time until most is moved from the blood stream into individual cells,[13],≤ 120 min
same,lifespan of worms with non-functional alpha AMPK subunit,[14],no increase in lifespan
same,lifespan of worms with non-functional alpha AMPK subunit,[14]; listed as OAA,will not increase the lifespan
same,lifespan of wild type worms subjected to calorie restriction,"[14]; functional AMPK, calorie restriction plus OAA supplementation",do not have their lifespan increased
same,increase of lifespan,[14],approximately 25%
same,increase of lifespan,[14]; listed as OAA,25%
same,drop in triglyceride levels,[15],10%
same,reduction in the amplitude of fasting blood glucose levels,[15],55%
same,effect on cancer tissue,[16],differential massive debris within the cancer tissue
same,blood-brain barrier penetration,[17],can penetrate the blood-brain barrier
same,NOAEL at 90 days,[18],500 mg/kg
O=C([O-])CC(=O)C(=O)O.[Na+] [sodium oxaloacetate],shelf life,[2],no shelf life
same,fraction in the enol form,[10],11%
same,fraction in the hydrated form,[10],5%
same,fraction in the keto form,[10],84%
